Assay results: patent publication US11883434B2, “Extracellular vesicles and methods of using” (NUtech Ventures, priority 2017, dated 2024)

How the values were obtained:
[1] = test system: human umbilical vein endothelial cells (HUVEC); test: Uptake of fluorophore-labeled milk exosomes into HUVECs; type: cell-based; settings: for effect on exosome uptake in HUVEC cells: inhibitors or 150 mmol/L carbohydrate competitors
HUVEC = test: Cell death (MTT viability) assay with puromycin-loaded exosomes; type: cell-based, human; settings: 1,837 μM puromycin added directly to media, 24 h
Method: The possibility that adherence to cells, rather than uptake into cells, accounted for cell fluorescence was dismissed based on the following cell death-based and enhanced green fluorescent protein (eGFP) protocols. Milk exosomes were suspended in BTXpress electroporation buffer (BTX, Holliston, MA; final concentration 100 […]), containing zero (negative control), 56 μM, or 223 μM puromycin in a 4-mm electroporation cuvette. Exosomes were loaded with puromycin or with a mammalian eGFP expression plasmid by electroporation in a Gene Pulser Xcell electroporator (Bio-Rad) using 250 V, 950 μF, and infinite resistance. Extra-exosomal puromycin was removed by ultracentrifugation and washing, and exosomes were resuspended in 300 μl of exosome-depleted cell culture media. In cell death assays, 100 μl of the suspension were added per well in a 96-well cell culture plate (containing ˜200 μl of media) and cells were cultured for 24 h, when viability was assessed using the MTT assay. Positive controls were created by adding puromycin directly to the media without encapsulation in exosomes, thereby producing a concentration of 1,837 μM puromycin. In eGFP assays, cells were cultured in media in which eGFP-loaded milk exosomes were substituted for exosomes in fetal bovine serum. Expression of eGFP was assessed by using confocal microscopy 3 days after initiation of cultures.

[2] = test system: human colon carcinoma Caco-2 cells; type: cell-based
Method: Caco-2 cells and IEC-6 cells were seeded at a density of 20,000 and 7000 cells/well, respectively, in 96-well plates, and allowed to adhere for 48 h, when cells were 75% confluent. The exosomes were labeled with the fluorophore, FM 4-64 (Molecular Probes). One microliter of a stock solution of FM 4-64 (5.9 mmol/L) was added to 1 mL of exosome suspension and incubated for 15 min at 37° C., and excess FM 4-64 was removed by ultracentrifugation at 120,000 3 g at 4° C. for 90 min. […] Assays were calibrated by quantifying the fluorescence of a known mass of exosomes labeled with FM 4-64. Exosome uptake was analyzed by measuring the cell fluorescence at 515 (excitation) and 640 nm (emission) using a Biotek FLx800 plate reader (BioTek Instru-ments). Fluorescence readings were corrected for cell autofluorescence by subtracting signals measured in cells incubated with exosome-depleted media. […] In Caco-2 cells, exosome uptake was linear for up to 120 min if transport was measured using nonsaturating substrate concentrations (FIG. 33A): y=0.0012x+0.014 (r2=0.97; P<0.05). In IEC-6 cells exosome uptake was linear for only up to 60 min if transport was measured using nonsaturating substrate concentrations (FIG. 33B): y=0.0033x+0.033 (r2=0.75; P<0.05). […]

Caco-2 cells = type: in vitro ADME, human
Method: In transwell studies Caco-2 cells were seeded at a density of 9000 cells/well with […] of media in 96-well polycarbonate plates with a pore size of […] (EMD Millipore). The cells were allowed to grow a differentiated monolayer for 21-24 d (33). Caco-2 cell monolayer integrity was formally confirmed using the Lucifer yellow (LY) rejection assay according to the manufacturer's instructions (33). LY fluorescence was measured in the transwell apical and basolateral chambers after 1 h of incubation at 37° C. In parallel experiments, Caco-2 cells were cultured in exosome-depleted media to which milk exosomes were added back to produce a concentration of 275 mg/100 mL exosomal protein in either the upper, apical chamber or the lower, basolateral chamber. Controls were cultured in exosome-depleted media. Aliquots of media were collected from the upper chamber and bottom chamber after 2 h of incubation for analysis of microRNAs. Twenty-five attomoles of internal standard (miSPIKE Synthetic RNA; IDT Technologies) was added to samples before microRNA extraction and subsequent analysis of miR-29b and miR-200c in transwell chambers by quantitative real-time PCR and microRNA-specific primers; miSpike was also used for PCR calibration. Values were corrected for the internal standard to normalize for extraction efficiency.

[3] = test system: human small intestinal cells (FHs cells); test: Uptake of milk exosomes into FH cells (protease, glycosidase, lectin, sonication); type: cell-based
[4] = test system: human macrophage U937 cells; test: Uptake of milk exosomes into U937 cells; type: cell-based; settings: exosomes treated with the labelled agent
[5] = FH cells treated with the labelled agent
[6] = exosomes treated with the labelled agent

In the case of C[C@H]1CCC/C=C/[C@@H]2C[C@H](O)C[C@H]2[C@H](O)/C=C/C(=O)O1 [BFA, brefeldin A], the “effect on exosome uptake in HUVEC cells” value [1] is reported as “decrease in exosome uptake”.

For O=C[C@H](O)[C@@H](O)[C@@H](O)[C@H](O)CO [D-galactose], the “effect on exosome uptake in HUVEC cells” value [1] was “significant decrease in exosome uptake”.

C=C1[C@@H](C)[C@H]2[C@H](Cc3ccccc3)NC(=O)[C@]23[C@H](OC(C)=O)/C=C/[C@@](C)(O)C(=O)[C@@H](C)C/C=C/[C@H]3[C@@H]1O [cytochalasin D] was tested, and the “decrease of exosome transport compared with controls” value ([1]; HUVEC, exosomes treated with proteinase K, or transport in presence of the labelled agent) was 50%, the exosome uptake ([1]; cells treated with 5 μg/ml cytochalasin D) was 63.5±21.3 % of controls and the exosome uptake ([1]; cells treated with 10 μg/ml cytochalasin D) was 40.8±22.0 % of controls. For the same compound, the “effect on exosome uptake in HUVEC cells” value [1] was “decrease in exosome uptake”.

With COc1ccc(C[C@H](N)C(=O)N[C@H]2[C@@H](O)[C@H](n3cnc4c(N(C)C)ncnc43)O[C@@H]2CO)cc1 [puromycin] the viability (HUVEC) was 37 % of puromycin-free controls.

In the case of “Glu-C: Serine protease cleaving at glutamic acid and aspartic acid”, the “effect on exosome uptake in Caco-2 cells” value ([2]; Caco-2) is reported as “significant decrease in exosome transport” and the “transport rates (Vmax)” value ([2]; exosomes treated with the labelled protease, intestinal transport) is reported as 19±0.3 arbitrary units.

In the case of Lucifer yellow, the rejection rate (Caco-2 cells) is reported as 99.8%.

“PHA-E: Lectin binding terminal galactose, N-acetylglucosamine and mannose residues of complex glycans” was tested, and the “effect on exosome uptake in FH cells” value [3, 5] was “decreases the uptake” and the “effect on exosome uptake in FH cells” value [3, 6] was “decreases the uptake”.

“SBA: Lectin binding terminal N-acetylgalactosamine and galactopyranosyl residues” was tested, and the “effect on exosome uptake in FH cells” value [3, 5] was “decreases the uptake” and the “effect on exosome uptake in FH cells” value [3, 6] was “decreases the uptake”.

For β-galactosidase, the “effect on exosome uptake in FH cells” value [3, 5] was “decrease in exosome uptake”, the “effect on exosome uptake in FH cells” value [3, 6] was “decrease in exosome uptake” and the “effect on exosome uptake in U937 cells” value [4] was “decrease in exosome uptake”.
